From patent US7339063B2, “Quinolyl organic germanium ester and the synthesis method thereof” (Changchun Institute of Applied Chemistry Chinese Academy of …, priority 2004, dated 2008)
Where two headings read alike, the source gives them in different places. Marks after values point to notes of the source that are not given here.

Test system: PC-3M prostate cancer cell line
Conditions: for inhibition fraction at the given concentration: PC-3M proliferation
Text: Cytotoxicity of Quinolyl Germanyl Propionate Sesquioxide (a) and Quinolyl Germanyl-α-methyl Propionate Sesquioxide (b) Against PC-3M Prostate Cancer Cell Line
The only difference of these two compounds is with or without the methyl group in the linking chain of the Germanium and quinoline.

Substance: Quinolyl Germanyl Propionate Sesquioxide [Compound (a)]
- inhibition fraction at the given concentration (10 μM, 24 h): 0.34**
- inhibition fraction at the given concentration (10 μM, 48 h): 0.69
- inhibition fraction at the given concentration (10 μM, 72 h): 0.62
- inhibition fraction at the given concentration (30 μM, 24 h): 0.48
- inhibition fraction at the given concentration (30 μM, 48 h): 0.74
- inhibition fraction at the given concentration (30 μM, 72 h): 0.74
- inhibition fraction at the given concentration (60 μM, 24 h): 0.50
- inhibition fraction at the given concentration (60 μM, 48 h): 0.74
- inhibition fraction at the given concentration (60 μM, 72 h): 0.78
- IC50 relative to that of Compound (b) (PC-3M, MTT method): three fold lower
- IC50 (PC-3M, measured by MTT method): 10 µM

Substance: Quinolyl Germanyl-α-methyl Propionate Sesquioxide [Compound (b)]
- inhibition fraction at the given concentration (10 μM, 24 h): 0.09
- inhibition fraction at the given concentration (10 μM, 48 h): 0.32
- inhibition fraction at the given concentration (10 μM, 72 h): 0.58
- inhibition fraction at the given concentration (30 μM, 24 h): 0.30
- inhibition fraction at the given concentration (30 μM, 48 h): 0.45
- inhibition fraction at the given concentration (30 μM, 72 h): 0.69
- inhibition fraction at the given concentration (60 μM, 24 h): 0.20
- inhibition fraction at the given concentration (60 μM, 48 h): 0.43
- inhibition fraction at the given concentration (60 μM, 72 h): 0.67
